# Experimental data reported in ChEMBL document CHEMBL5674866 (J Biol Chem, 2015).
# Key:
# [1] = Inhibition of human ABL1 pH396P mutant by discoverX kinome scan assay
# [2] = Inhibition of human ABL1 pM351T mutant by discoverX kinome scan assay
# [3] = Inhibition of human ABL1 pT315I mutant by discoverX kinome scan assay
# [4] = biological target: Serine/threonine-protein kinase MRCK beta (Homo sapiens, UniProt Q9Y5S2); assay: Inhibition of human MRCKB by discoverX kinome scan assay
# Myosin-IIIa = Myosin-IIIa (Homo sapiens, UniProt Q8NEV4); assay: Inhibition of human MYO3A by discoverX kinome scan assay
# [5] = biological target: T1, Serine/threonine-protein kinase Nek2 (Homo sapiens, UniProt P51955); assay: Inhibition of human NEK2 by discoverX kinome scan assay
# T1 sequence (P51955 whole entry): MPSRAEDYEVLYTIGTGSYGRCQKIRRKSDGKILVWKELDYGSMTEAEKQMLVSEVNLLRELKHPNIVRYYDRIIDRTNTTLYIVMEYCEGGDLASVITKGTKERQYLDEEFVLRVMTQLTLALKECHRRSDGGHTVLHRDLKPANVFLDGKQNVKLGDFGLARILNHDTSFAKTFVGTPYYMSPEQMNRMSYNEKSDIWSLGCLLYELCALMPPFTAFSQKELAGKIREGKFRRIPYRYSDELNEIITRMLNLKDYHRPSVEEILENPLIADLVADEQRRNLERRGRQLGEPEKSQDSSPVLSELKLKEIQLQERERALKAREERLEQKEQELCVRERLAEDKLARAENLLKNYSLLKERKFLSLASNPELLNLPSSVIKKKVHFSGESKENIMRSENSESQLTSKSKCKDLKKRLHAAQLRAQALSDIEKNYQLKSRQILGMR
# [6] = biological target: T2, Mitogen-activated protein kinase 13 (Homo sapiens, UniProt O15264); assay: Inhibition of human p38-delta by discoverX kinome scan assay
# T2 sequence (O15264 whole entry): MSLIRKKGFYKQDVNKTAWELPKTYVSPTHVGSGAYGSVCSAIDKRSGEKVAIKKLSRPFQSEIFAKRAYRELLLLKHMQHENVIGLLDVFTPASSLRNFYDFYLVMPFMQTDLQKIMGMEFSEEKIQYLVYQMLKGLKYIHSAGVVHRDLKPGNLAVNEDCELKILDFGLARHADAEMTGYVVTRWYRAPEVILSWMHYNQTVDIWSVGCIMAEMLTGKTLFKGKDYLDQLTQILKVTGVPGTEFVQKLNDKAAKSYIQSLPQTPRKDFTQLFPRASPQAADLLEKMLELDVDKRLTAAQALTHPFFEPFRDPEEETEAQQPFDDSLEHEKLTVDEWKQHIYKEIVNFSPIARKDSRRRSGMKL
# [7] = biological target: Protein kinase C eta type (Homo sapiens, UniProt P24723); assay: Inhibition of human PRKCH by discoverX kinome scan assay
# [8] = biological target: Phosphatidylinositol 4,5-bisphosphate 3-kinase catalytic subunit beta isoform (Homo sapiens, UniProt P42338); assay: Inhibition of human PIK3CB by discoverX kinome scan assay
# KYSE-150 cell line = assay: Effect on cellular post-translational modifications on histone […] (GKGGKGLGKGGAKR) - K5 acetylated , K8 unmethylated , K12 acetylated, K16 unmethylated in human KYSE-150 cells assessed as relative abundance at 5 by mass spectrometric analysis (reference value: 3+/-1.7); format: functional; settings: dose 5 µM
# Chain of Phosphatidylinositol 4,5-bisphosphate 3-kinase catalytic subunit beta isoform (P42338 whole entry, canonical isoform): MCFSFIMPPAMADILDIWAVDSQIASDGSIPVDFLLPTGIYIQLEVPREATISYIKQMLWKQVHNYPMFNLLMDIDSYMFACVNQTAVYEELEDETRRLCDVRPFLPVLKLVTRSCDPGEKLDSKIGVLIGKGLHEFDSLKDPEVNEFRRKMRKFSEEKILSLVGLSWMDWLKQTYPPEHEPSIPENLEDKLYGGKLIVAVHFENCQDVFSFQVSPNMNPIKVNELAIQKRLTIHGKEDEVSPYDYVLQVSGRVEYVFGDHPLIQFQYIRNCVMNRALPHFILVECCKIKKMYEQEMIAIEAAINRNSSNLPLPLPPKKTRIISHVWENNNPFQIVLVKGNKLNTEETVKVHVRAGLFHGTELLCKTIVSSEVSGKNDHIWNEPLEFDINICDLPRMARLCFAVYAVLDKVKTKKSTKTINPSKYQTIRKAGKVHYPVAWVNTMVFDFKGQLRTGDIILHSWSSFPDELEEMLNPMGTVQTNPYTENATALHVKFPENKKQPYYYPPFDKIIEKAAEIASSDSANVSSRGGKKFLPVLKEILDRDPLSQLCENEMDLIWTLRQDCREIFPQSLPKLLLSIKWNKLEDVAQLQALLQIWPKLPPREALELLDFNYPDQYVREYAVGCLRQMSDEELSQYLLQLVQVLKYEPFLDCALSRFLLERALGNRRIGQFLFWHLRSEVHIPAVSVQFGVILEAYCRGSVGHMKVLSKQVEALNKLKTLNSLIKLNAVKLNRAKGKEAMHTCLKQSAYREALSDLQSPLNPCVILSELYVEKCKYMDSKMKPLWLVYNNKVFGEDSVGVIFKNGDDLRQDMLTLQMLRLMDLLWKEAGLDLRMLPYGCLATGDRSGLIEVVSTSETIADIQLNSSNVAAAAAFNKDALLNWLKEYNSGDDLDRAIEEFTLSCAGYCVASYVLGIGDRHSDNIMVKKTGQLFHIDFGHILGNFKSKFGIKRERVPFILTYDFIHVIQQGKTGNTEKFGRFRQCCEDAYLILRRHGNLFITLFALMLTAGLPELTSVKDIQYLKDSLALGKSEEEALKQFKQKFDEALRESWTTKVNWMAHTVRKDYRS
# Chain of Serine/threonine-protein kinase MRCK beta (Q9Y5S2 whole entry): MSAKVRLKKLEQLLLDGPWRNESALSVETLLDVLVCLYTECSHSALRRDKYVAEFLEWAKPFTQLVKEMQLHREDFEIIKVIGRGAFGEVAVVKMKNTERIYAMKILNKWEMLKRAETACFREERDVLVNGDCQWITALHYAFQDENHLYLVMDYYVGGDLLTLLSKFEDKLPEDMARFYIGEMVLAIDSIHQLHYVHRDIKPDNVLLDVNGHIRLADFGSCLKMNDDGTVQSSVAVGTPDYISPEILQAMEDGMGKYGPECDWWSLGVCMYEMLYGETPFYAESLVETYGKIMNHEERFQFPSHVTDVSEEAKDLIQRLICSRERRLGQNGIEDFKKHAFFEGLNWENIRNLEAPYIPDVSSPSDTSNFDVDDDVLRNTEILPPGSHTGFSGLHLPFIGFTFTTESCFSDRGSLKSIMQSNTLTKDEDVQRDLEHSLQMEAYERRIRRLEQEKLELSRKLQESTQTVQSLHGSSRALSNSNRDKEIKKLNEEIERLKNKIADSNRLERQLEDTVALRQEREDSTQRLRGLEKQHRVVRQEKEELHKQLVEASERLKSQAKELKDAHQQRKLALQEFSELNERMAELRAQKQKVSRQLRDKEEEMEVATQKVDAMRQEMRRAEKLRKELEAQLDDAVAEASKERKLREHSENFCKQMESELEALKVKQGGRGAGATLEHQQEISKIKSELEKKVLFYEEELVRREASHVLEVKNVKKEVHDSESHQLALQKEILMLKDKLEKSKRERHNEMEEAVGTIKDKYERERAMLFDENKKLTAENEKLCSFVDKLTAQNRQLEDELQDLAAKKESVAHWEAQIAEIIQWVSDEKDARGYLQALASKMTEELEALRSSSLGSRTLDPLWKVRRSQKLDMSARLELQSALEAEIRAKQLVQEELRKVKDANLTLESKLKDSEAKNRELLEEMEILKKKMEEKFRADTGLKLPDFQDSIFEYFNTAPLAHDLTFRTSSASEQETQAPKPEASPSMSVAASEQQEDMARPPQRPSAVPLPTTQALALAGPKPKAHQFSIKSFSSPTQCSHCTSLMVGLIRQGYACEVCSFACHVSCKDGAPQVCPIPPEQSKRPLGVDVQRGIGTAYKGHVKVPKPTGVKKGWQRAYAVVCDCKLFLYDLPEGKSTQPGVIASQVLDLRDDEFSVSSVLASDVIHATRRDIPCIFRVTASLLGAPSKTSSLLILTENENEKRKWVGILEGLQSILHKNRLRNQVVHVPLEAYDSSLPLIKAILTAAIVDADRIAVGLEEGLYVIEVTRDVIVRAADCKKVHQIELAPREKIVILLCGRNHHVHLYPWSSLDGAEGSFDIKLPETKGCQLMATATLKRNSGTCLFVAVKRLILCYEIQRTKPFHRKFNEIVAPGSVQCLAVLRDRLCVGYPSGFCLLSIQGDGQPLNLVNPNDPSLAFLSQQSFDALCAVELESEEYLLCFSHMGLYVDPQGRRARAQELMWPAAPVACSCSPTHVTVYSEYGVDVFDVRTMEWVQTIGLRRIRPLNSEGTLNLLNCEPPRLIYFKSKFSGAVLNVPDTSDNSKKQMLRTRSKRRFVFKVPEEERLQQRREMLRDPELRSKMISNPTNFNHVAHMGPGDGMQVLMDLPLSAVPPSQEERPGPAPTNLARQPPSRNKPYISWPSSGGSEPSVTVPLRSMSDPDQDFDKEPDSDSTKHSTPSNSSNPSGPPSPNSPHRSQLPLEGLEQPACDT
# Chain of Protein kinase C eta type (P24723 whole entry, canonical isoform): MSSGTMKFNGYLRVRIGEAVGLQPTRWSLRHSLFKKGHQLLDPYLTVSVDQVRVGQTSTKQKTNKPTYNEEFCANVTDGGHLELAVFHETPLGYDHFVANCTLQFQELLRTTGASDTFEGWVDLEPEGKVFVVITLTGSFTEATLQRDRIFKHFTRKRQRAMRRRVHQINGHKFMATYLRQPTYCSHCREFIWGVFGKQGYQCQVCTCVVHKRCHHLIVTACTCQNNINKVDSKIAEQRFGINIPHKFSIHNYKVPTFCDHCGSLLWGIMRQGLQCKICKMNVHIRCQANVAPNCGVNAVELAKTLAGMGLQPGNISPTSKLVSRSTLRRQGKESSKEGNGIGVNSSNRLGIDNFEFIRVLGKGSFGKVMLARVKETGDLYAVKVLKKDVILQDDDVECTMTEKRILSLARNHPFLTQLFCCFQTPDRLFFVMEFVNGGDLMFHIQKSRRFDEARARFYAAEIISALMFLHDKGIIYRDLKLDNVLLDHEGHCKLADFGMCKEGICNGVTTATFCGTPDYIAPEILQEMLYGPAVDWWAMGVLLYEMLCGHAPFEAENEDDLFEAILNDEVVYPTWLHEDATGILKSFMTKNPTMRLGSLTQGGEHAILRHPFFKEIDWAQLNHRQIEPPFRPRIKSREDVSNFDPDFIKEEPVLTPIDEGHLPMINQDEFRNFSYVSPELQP
# Chain of Myosin-IIIa (Q8NEV4 whole entry): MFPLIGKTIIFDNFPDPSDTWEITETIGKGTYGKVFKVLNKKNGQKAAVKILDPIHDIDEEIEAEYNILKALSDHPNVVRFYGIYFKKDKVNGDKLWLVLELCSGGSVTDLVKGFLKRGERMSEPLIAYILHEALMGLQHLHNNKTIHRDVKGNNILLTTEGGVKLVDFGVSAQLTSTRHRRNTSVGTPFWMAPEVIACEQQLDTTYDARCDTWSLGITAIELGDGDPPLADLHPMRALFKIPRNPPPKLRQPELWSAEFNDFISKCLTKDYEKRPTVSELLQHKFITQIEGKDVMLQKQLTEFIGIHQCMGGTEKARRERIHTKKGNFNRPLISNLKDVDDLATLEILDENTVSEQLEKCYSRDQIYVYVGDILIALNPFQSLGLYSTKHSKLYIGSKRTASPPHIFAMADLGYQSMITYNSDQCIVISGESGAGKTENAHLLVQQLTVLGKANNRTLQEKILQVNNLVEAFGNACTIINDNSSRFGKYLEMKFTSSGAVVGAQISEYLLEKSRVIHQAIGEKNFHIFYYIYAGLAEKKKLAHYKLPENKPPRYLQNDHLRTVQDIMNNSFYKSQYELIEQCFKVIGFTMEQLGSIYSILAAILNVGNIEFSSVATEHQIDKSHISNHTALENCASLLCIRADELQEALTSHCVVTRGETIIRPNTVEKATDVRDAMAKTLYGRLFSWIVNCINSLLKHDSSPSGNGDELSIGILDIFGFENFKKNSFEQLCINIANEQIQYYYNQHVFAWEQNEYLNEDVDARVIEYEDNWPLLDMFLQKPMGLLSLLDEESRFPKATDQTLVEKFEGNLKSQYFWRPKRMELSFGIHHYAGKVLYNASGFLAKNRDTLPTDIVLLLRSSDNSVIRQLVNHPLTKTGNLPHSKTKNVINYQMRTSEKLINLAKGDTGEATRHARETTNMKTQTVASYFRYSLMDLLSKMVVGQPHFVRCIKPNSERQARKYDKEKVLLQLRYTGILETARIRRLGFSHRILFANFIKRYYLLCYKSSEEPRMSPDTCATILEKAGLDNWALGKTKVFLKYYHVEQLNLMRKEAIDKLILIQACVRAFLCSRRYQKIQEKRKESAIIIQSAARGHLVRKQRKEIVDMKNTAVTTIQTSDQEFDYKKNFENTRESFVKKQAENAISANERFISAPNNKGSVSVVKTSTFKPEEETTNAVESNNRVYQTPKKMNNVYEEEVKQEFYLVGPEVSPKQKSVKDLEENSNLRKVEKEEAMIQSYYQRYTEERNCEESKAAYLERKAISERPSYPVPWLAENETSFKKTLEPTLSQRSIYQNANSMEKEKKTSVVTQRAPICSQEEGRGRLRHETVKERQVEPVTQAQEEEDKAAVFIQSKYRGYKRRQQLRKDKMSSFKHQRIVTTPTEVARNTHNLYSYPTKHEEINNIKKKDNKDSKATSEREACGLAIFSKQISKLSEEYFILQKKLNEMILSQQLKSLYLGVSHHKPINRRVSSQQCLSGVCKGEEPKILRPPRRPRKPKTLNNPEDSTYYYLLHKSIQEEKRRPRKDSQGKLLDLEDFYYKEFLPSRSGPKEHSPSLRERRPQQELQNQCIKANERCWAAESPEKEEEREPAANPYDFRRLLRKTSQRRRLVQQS
smiles,measurement,setting,value
Cc1cn(CCN2CCN(c3ccccc3-c3cc(C#N)cc(C(=O)NCCCN4CCCC4)c3)CC2)c2ccccc12,IC50,[1],> 20 µM
same,IC50,[2],> 20 µM
same,IC50,[3],> 20 µM
same,IC50,[4],> 20 µM
same,IC50,Myosin-IIIa,> 20 µM
same,IC50,[5],> 20 µM
same,IC50,[6],> 20 µM
same,IC50,[7],> 20 µM
same,IC50,[8],> 20 µM
same,Activity,KYSE-150 cell line,1.6
